Measurements from US20060058320A1, “[1,2,4] Triazolo[1,5-c]pyrimidine derivatives” (KYOWA HAKKO KOGYO CO., LTD., priority 2002, published 2006).
Where a name gives a salt, the structure may show the parent alone. Read-outs that look alike come from different tables or passages of the source.

Legend:
adenosine A2A receptor = target: T1, adenosine A2A receptor (Rattus norvegicus, UniProt P30543); assay: Adenosine A2A receptor binding test (3H-CGS 21680 binding); details: for inhibition at 0.1 µM: read-out: A2A Receptor inhibition rate (%) at 10^−7 mol/L
T1 construct: from tissue; host or cells: rat corpus striatum membrane preparation
T1 sequence (P30543 whole entry): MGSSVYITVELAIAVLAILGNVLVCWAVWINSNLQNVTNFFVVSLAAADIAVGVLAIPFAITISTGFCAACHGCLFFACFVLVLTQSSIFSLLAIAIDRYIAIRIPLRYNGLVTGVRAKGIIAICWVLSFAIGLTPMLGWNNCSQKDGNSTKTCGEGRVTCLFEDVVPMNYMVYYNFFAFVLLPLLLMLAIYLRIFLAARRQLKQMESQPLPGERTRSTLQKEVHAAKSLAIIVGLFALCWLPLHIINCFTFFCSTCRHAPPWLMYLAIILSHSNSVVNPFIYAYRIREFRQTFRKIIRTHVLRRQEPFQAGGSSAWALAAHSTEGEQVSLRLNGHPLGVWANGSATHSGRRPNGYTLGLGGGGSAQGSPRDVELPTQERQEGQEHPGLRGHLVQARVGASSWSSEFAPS
Procedure: The test was carried out according to the method of Bruns et al. [Molecular Pharmacology, vol. 29, p.
Rat corpus striatum was suspended in an ice-cold 50 mmol/L tris(hydroxymethyl)aminomethane hydrochloride (referred to as “Tris HCl” hereinafter) buffer (pH 7.7) using a Polytron homogenizer (produced by Kinematica Co.). The suspension was centrifuged (50,000×g, 10 minutes), and the resulting precipitate was again suspended in the same amount of a 50 mmol/L Tris HCl buffer, followed by centrifugation under the same conditions. The resulting finalprecipitate was again suspended in a 50 mmol/L-Tris HCl buffer [containing 10 mmol/L of magnesium chloride and 0.02 unit/mg tissue of adenosine deaminase (produced by Sigma Co.)] so that the tissue concentration was 5 mg (wet weight)/mL.
The radioactivity on the filter was determined with a liquid scintillation counter (produced by Packard Instrument Co.).
In the equation, X represents Amount of binding in the presence of a medicament, Y represents Amount of nonspecific binding, and Z represents Amount of total binding.

[1] = tested on: CGS 21680-induced catalepsy; assay: Activity on CGS 21680-induced catalepsy; type: in vivo, mice; details: for inhibition in vivo at 10 mg/kg: Mus musculus, po, read-out: Remission ratio (%); for Total score: total catalepsy score of 10 mice (maximum 50 points; 40 points or less = positive), one hour after administration; for Number of animals showing remission: cases with catalepsy score of 4 points or less in 10 cases
Procedure: Parkinson's disease is a motor disorder based on degeneration and cell death of the nigrostriatal dopaminergic neurons. When CGS 21680 (adenosine A2A receptor agonist) is administered into the intracerebral ventricle, the inhibitory synaptic transmission of GABA in the medium sized spiny neurons in the corpus striatum is inhibited directly via the adenosine A2A receptor [Journal of Neuroscience, vol. 16, p. 605 (1996)]. Accordingly, it is concidered that the adenosine A2A receptor agonists positively regulate the output of the GABAergic neurons from the corpus striatum to the globus pallidus lateralis, and, as a result, catalepsy is induced by the administration of CGS 21680.
The test was carried out using ten 5-week age male ddY mice (22-25 g in body weight, Japan SLC) per group. CGS 21680 (produced by RBI Co) was dissolved in physiological saline (produced by Otsuka Pharmaceutical Co., Ltd.), and 10 μg/20 μL of the solution was injected into mouse intracerebral ventricle. Each test compound was used by suspending it in distilled water containing 0.3% of polyoxylene (20) sorbitan monooleate (referred to as “Tween 80” hereinafter) (produced by Otsuka Pharmaceutical Co., Ltd.). The suspension containing each test compound or a solution containing no test Compound (distilled water containing 0.3% of Tween 80; used as a control) was orally administered (0.1 mL per 10 g of mouse body weight) 30 minutes before the injection of CGS 21680 into the intracerebral ventricle. One hour after the administration of the each test compound, only forelimbs or only hindlimbs of each mouse were laid on a vertically arranged stand made of acryl and having a size of 4.5 cm in height and 1.0 cm in width to measure catalepsy symptoms. All of the test compounds were administered orally in a dose of 10 mg/kg.
The criteria of the catalepsy score are shown below.
The effect was decided by a total catalepsy score of 10 mice in one group (the maximum score: 50 points). When the total score was 40 points or less, the activity of the compounds was decided positive. The number of the animals showing remission of catalepsy was expressed by the number of cases showing a catalepsy score of 4 points or less in 10 cases. The catalepsy remission ratio was expressed as the percentage of the total score in the test compound-administered group to the total score in the control group.

[2] = test compound 10^−7 mol/L, 3H-CGS 21680 binding, rat corpus striatum
[3] = from total score of test group and control group, 10 mg/kg orally

inhibition at 0.1 µM (adenosine A2A receptor; [2]) [%]	Structure (SMILES)	inhibition in vivo at 10 mg/kg [1, 3] [%]	Total score ([1]; 10 mg/kg orally)	other results
70	Nc1nc(-c2cc3nc(-c4ccco4)nn3c(N)n2)cs1 [Compound 58, 5-Amino-7-(2-aminothiazol-4-yl)-2-(2-furyl)-[1,2,4]triazolo-[1,5-c]pyrimidine]	80	10	
78	Nc1nc(C#CC2(O)CCCC2)cc2nc(-c3ccco3)nn12 [Compound 69, 5-Amino-2-(2-furyl)-7-[2-(1-hydroxycyclopentyl)ethynyl][1,2,4]triazolo[1,5-c]pyrimidine]	96	2	
71	CN(Cc1ccc2c(c1)OCO2)C(=O)c1cc2nc(-c3ccco3)nn2c(N)n1 [Compound 107, 5-Amino-2-(2-furyl)[1,2,4]triazolo[1,5-c]pyrimidine-7-carboxylic acid [N-(1,3-benzodioxol-5-ylmethyl)-N-methyl]amide monohydrochloride]	90	5	
66	CN(Cc1ccnc2ccccc12)C(=O)c1cc2nc(-c3ccco3)nn2c(N)n1 [Compound 113, 5-Amino-2-(2-furyl)[1,2,4]triazolo[1,5-c]pyrimidine-7-carboxylic acid [N-methyl-N-(4-quinolylmethyl)]amide]	76	12	
61	CN(Cc1cccc(F)c1)C(=O)c1cc2nc(-c3ccco3)nn2c(N)n1 [Compound 120, 5-Amino-2-(2-furyl)[1,2,4]triazolo[1,5-c]pyrimidine-7-carboxylic acid [N-(3-fluorobenzyl)-N-methyl]amide monohydrochloride]			
74	CN(Cc1ccccc1Cl)C(=O)c1cc2nc(-c3ccco3)nn2c(N)n1 [Compound 122, 5-Amino-2-(2-furyl)[1,2,4]triazolo[1,5-c]pyrimidine-7-carboxylic acid [N-(2-chlorobenzyl)-N-methyl]amide monohydrochloride]	80	10	
59	CN(Cc1cccnc1Cl)C(=O)c1cc2nc(-c3ccco3)nn2c(N)n1 [Compound 128, 5-Amino-2-(2-furyl)[1,2,4]triazolo[1,5-c]pyrimidine-7-carboxylic acid [N-(2-chloropyridin-3-ylmethyl)-N-methyl]-amide]			
51	COc1ccc(CN(C)C(=O)c2cc3nc(-c4ccco4)nn3c(N)n2)cn1 [Compound 131, 5-Amino-2-(2-furyl)[1,2,4]triazolo[1,5-c]pyrimidine-7-carboxylic acid [N-methyl-N-(6-methoxypyridin-3-ylmethyl)]-amide]	88	6	
60	Cc1ncccc1CN(C)C(=O)c1cc2nc(-c3ccco3)nn2c(N)n1 [Compound 134, 5-Amino-2-(2-furyl)[1,2,4]triazolo[1,5-c]pyrimidine-7-carboxylic acid [N-methyl-N-(2-methylpyridin-3-ylmethyl)]-amide]			
70	CC1CCN(C(=O)c2cc3nc(-c4ccco4)nn3c(N)n2)CC1 [Compound 143, 5-Amino-2-(2-furyl)[1,2,4]triazolo[1,5-c]pyrimidin-7-yl 4-methylpiperidino ketone]	90	5	

The remaining lines, values behind:

Structure (SMILES)	inhibition at 0.1 µM (adenosine A2A receptor; [2]) [%]	inhibition in vivo at 10 mg/kg [1, 3] [%]	Total score ([1]; 10 mg/kg orally)	other results
Nc1nc(C(=O)c2ccc(F)cc2)cc2nc(-c3ccco3)nn12 [Compound 40, 5-Amino-7-(4-fluorobenzoyl)-2-(2-furyl)[1,2,4]triazolo-[1,5-c]pyrimidine]	58	94	3	
COCCN1CCN(Cc2cc3nc(-c4ccco4)nn3c(N)n2)CC1 [Compound 49, 5-Amino-2-(2-furyl)-7-[4-(2-methoxyethyl)piperazin-1-yl-methyl][1,2,4]triazolo[1,5-c]pyrimidine dihydrochloride]	89		4	inhibition in vivo at 10 mg/kg [1]: 92%
COCCN1CC=C(c2cc3nc(-c4ccco4)nn3c(N)n2)CC1 [Compound 73, 5-Amino-2-(2-furyl)-7-[1-(2-methoxyethyl)-1,2,3,6-tetra-hydropyridin-4-yl][1,2,4]triazolo[1,5-c]pyrimidine]			6	inhibition at 0.1 µM (adenosine A2A receptor): 98%; inhibition in vivo at 10 mg/kg [1]: 88%
CCN(Cc1ccccc1)C(=O)c1cc2nc(-c3ccco3)nn2c(N)n1 [Compound 99, 5-Amino-2-(2-furyl)[1,2,4]triazolo[1,5-c]pyrimidine-7-carboxylic acid (N-benzyl-N-ethyl)amide]	69			
CN(Cc1ccco1)C(=O)c1cc2nc(-c3ccco3)nn2c(N)n1 [Compound 101, 5-Amino-2-(2-furyl)[1,2,4]triazolo[1,5-c]pyrimidine-7-carboxylic acid [N-(2-furylmethyl)-N-methyl]amide]	83			
N#CCCN(Cc1cccnc1)C(=O)c1cc2nc(-c3ccco3)nn2c(N)n1 [Compound 103, 5-Amino-2-(2-furyl)[1,2,4]triazolo[1,5-c]pyrimidine-7-carboxylic acid [N-(2-cyanoethyl)-N-(3-pyridylmethyl)]amide]	54			
COc1ccc(CN(C)C(=O)c2cc3nc(-c4ccco4)nn3c(N)n2)cc1 [Compound 108, 5-Amino-2-(2-furyl)[1,2,4]triazolo[1,5-c]pyrimidine-7-caroboxylic acid [N-(4-methoxybenzyl)-N-methyl]amide monohydrochloride]	65	96	2	
CC(C)N(Cc1ccn(C)c1)C(=O)c1cc2nc(-c3ccco3)nn2c(N)n1 [Compound 116, 5-Amino-2-(2-furyl)[1,2,4]triazolo[1,5-c]pyrimidine-7-carboxylic acid [N-isopropyl-N-(1-methylpyrrol-3-ylmethyl)]amide]			9	A2A Receptor inhibition rate (%) at 10^−7 mol/L (adenosine A2A receptor; [2]): 62%; Number of animals showing remission ([1]; 10 mg/kg orally): 9; Remission ratio (%) [1, 3]: 82%
Nc1nc(C(=O)N2CCCCC2)cc2nc(-c3ccco3)nn12 [Compound 142, 5-Amino-2-(2-furyl)[1,2,4]triazolo[1,5-c]pyrimidin-7-yl piperidino ketone]	71			
CC1CCCN(C(=O)c2cc3nc(-c4ccco4)nn3c(N)n2)C1 (stereo not drawn) [Compound 145, 5-Amino-2-(2-furyl)[1,2,4]triazolo[1,5-c]pyrimidin-7-yl 3-methylpiperidino ketone]				inhibition at 0.1 µM (adenosine A2A receptor): 60%
Nc1nc(C(=O)N2CCCC2)cc2nc(-c3ccco3)nn12 [Compound 148, 5-Amino-2-(2-furyl)[1,2,4]triazolo[1,5-c]pyrimidin-7-yl pyrrolidinyl ketone]				A2A Receptor inhibition rate (%) at 10^−7 mol/L (adenosine A2A receptor; [2]): 75%
Nc1nc(C(=O)N2CCC3CCCCC3C2)cc2nc(-c3ccco3)nn12 (stereo not drawn) [Compound 151, 5-Amino-2-(2-furyl)[1,2,4]triazolo[1,5-c]pyrimidin-7-yl cis-decahydroisoquinolyl ketone]			12	A2A Receptor inhibition rate (%) at 10^−7 mol/L (adenosine A2A receptor; [2]): 71%; Number of animals showing remission ([1]; 10 mg/kg orally): 8; Remission ratio (%) [1, 3]: 74%
Nc1nc(C(=O)N2CCCCCC2)cc2nc(-c3ccco3)nn12 [Compound 154, 5-Amino-2-(2-furyl)[1,2,4]triazolo[1,5-c]pyrimidin-7-yl perhydroazepinyl ketone]			16	A2A Receptor inhibition rate (%) at 10^−7 mol/L (adenosine A2A receptor; [2]): 56%; Number of animals showing remission ([1]; 10 mg/kg orally): 7; Remission ratio (%) [1, 3]: 66%
